Where a name gives a salt, the structure may show the parent alone.
Tests used:
[1] = Solubility of paliroden and xaliproden in trans-tympanic compositions and in water (Example 2); type: physicochemical
Procedure: Eight compositions compatible with trans-tympanic injections were prepared: four thermoreversible gel compositions and four lipid-based mucoadhesive solutions. These eight compositions were prepared both with paliroden fumarate as active agent, and with xaliproden hydrochloride as active agent. The solubility of respectively paliroden and xaliproden in the compositions was measured.

male Wistar rats [2] = assay: ABR/DPOAE assessment, noise-induced permanent hearing loss, delayed trans-tympanic treatment (Example 7); type: in vivo; settings: T0+28 days, versus traumatized animals untreated or vehicle; treatment 2 days and 9 days post-noise
Procedure: Forty male Wistar rats were selected and evenly distributed to treatment and control groups, each group comprising 8 rats at the end of the study. Randomization was performed using the ABR threshold in the left ear at 16 kHz as a criterium. The “sham” group consists in rats (n=8) that received neither noise exposure nor trans-tympanic injection. The “traumatized NaCl” group consists of rats (n=8) that received noise exposure only and trans-tympanic injections of a saline solution. The “traumatized vehicle” group consists in rats (n=8) that received noise exposure and trans-tympanic injections of placebo (a composition comprising Poloxamer 407 (7,2% w/w), Poloxamer 188 (8% w/w) and Cremophor EL® (20% w/w) in phosphate buffer pH=7.4, the percentages being expressed relative to the total weight of the composition). The “traumatized paliroden” group consists in rats (n=8) that received noise exposure and trans-tympanic injections of a composition comprising paliroden (fumarate salt), corresponding to composition 4P described in Example 2. The “traumatized xaliproden” group consists in rats (n=10) that received noise exposure and a trans-tympanic injection of a composition comprising xaliproden (hydrochloride salt), corresponding to composition 4X described in Example 2. […]

male Wistar rats [3] = assay: ABR thresholds after acoustic trauma and trans-tympanic treatment (Example 5); type: in vivo
Procedure: Fourty-three male Wistar rats were selected and distributed to treatment and control groups, each group comprising between 6 to 9 rats at the start of the study. Randomization was performed using the ABR threshold in the left ear at 16 kHz as a criterium. The “sham” group comprises 7 rats, which received neither noise exposure nor trans-tympanic injection. […] The “traumatized” group comprises 9 rats, which received noise exposure only and no treatment. The “traumatized vehicle” group comprises 7 rats, which received noise exposure and a trans-tympanic injection of placebo (a composition comprising only Cremophor EL®). The “traumatized paliroden” group comprises 7 rats, which received noise exposure and a trans-tympanic injection of a composition comprising paliroden (fumarate salt), corresponding to composition 7P described in Example 2. The “traumatized xaliproden” group comprises 7 rats, which received noise exposure and a trans-tympanic injection of a composition comprising xaliproden (hydrochloride salt), corresponding to composition 7X described in Example 2.
All animals (except sham group) received a bilateral noise exposure at a noise band of 8-16 kHz at 115 dB SPL RMS during 2 hours (from time T0 to time T0+2 hours).
30 μL of compositions comprising either paliroden or xaliproden as active agent were administered once in both ears of each rat of the treatment groups (30 μL per ear) via trans-tympanic administration by injection between the eardrum and the round window by means of a needle which crosses the eardrum, 4 hours after the start of the noise exposure (i.e. at T0+4 hours, thus 2 hours after the end of the noise exposure), under isoflurane anesthesia. The compositions correspond respectively to compositions 7P and 7X described in Example 2, i.e. they comprise only Cremophor EL® as excipient and either paliroden (fumarate salt) or xaliproden (hydrochloride salt) as active agent. The dose of paliroden (fumarate salt) that is administered is 240 μg per ear of the rats belonging to the “traumatized paliroden” group (240 μg in the 30 μL that are injected via trans-tympanic route by injection between the eardrum and the round window by means of a needle which crosses the eardrum). The dose of xaliproden (hydrochloride salt) that is administered is 192 μg per ear of the rats belonging to the “traumatized xaliproden” group (192 μg in the 30 μL that are injected via trans-tympanic route by injection between the eardrum and the round window by means of a needle which crosses the eardrum). […]

[4] = one day following noise exposure, from 25 to 32 kHz, paliroden 240 μg/ear, xaliproden 192 μg/ear

| SMILES | solubility [1] | Effect on ABR thresholds, DPOAE amplitudes, ABR Wave I amplitudes (male Wistar rats [2]) | ABR Threshold shifts reduction in comparison to the traumatized vehicle group (male Wistar rats [3]; 7 days post-noise, from 16 to 32 kHz, paliroden 240 μg/ear) | ABR Threshold shifts reduction in comparison to the traumatized vehicle group (male Wistar rats [3]; [4]) | ABR Threshold shifts reduction in comparison to the traumatized vehicle group (male Wistar rats [3]; 7 days post-noise, from 25 to 32 kHz, xaliproden 192 μg/ear) |
| --- | --- | --- | --- | --- | --- |
| FC(F)(F)c1cccc(C2=CCN(CCc3ccc(-c4ccccc4)cc3)CC2)c1 [paliroden (fumarate salt), 1-[2-(4-biphenylyl)ethyl]-4-(3-trifluoromethylphenyl)-1,2,3,6-tetrahydropyridine] | < 100 µg/mL | did not show effect | 15-20 dB | approximately 10 dB |  |
| FC(F)(F)c1cccc(C2=CCN(CCc3ccc4ccccc4c3)CC2)c1 [xaliproden (hydrochloride salt), 1-[2-(2-naphthyl)ethyl]-4-(3-trifluoromethylphenyl)-1,2,3,6-tetrahydropyridine] | < 100 µg/mL | did not show effect |  | approximately 10 dB | approximately 15 dB |

Source: patent US20230390273A1, “4-PHENYL-TETRAHYDROPYRIDINE DERIVATIVES FOR TREATING HEARING DISEASES” (CILCARE DEV, priority 2021, published 2023)
